Measured values from PubChem BioAssay AID1259407 (Chemical Carcinogenesis Research Information System (CCRIS), 2018).
The source made the active and inactive calls. How the calls were made is not given here.

System: CCRIS mutagenicity, Ames/micronucleus/aberration tests
Assay: CCRIS mutagenicity studies
Settings: Test System: AMES SALMONELLA TYPHIMURIUM
[1] = Strain/Indicator: TA98, Metabolic Activation: NONE, Method: PREINCUBATION
[2] = Strain/Indicator: TA100, Metabolic Activation: NONE, Method: PREINCUBATION
[3] = Strain/Indicator: TA100, Metabolic Activation: NONE, Method: STANDARD PLATE
[4] = Strain/Indicator: TA1535, Metabolic Activation: NONE, Method: PREINCUBATION
[5] = Strain/Indicator: TA1537, Metabolic Activation: NONE, Method: PREINCUBATION

O=C(O)/C=C/c1ccccc1[N+](=O)[O-]
mutagenic call [1]: inactive; negative | mutagenic call (Strain/Indicator: TA98, Metabolic Activation: NONE, Method: STANDARD PLATE): inactive; negative | mutagenic call (Strain/Indicator: TA98, Metabolic Activation: RAT, LIVER, S-9, AROCLOR 1254, Method: STANDARD PLATE): inactive; negative | mutagenic call (Strain/Indicator: TA98, Method: PREINCUBATION): inactive; negative | mutagenic call [2]: inactive; negative | mutagenic call [3]: inactive; negative | mutagenic call (Strain/Indicator: TA100, Metabolic Activation: RAT, LIVER, S-9, AROCLOR 1254, Method: PREINCUBATION): inactive; negative | mutagenic call (Strain/Indicator: TA100, Metabolic Activation: RAT, LIVER, S-9, AROCLOR 1254, Method: STANDARD PLATE): inactive; negative | mutagenic call (Strain/Indicator: TA100, Method: PREINCUBATION): inactive; negative | mutagenic call [4]: inactive; negative | mutagenic call (Strain/Indicator: TA1535, Method: PREINCUBATION): inactive; negative | mutagenic call [5]: inactive; negative | mutagenic call (Strain/Indicator: TA1537, Method: PREINCUBATION): inactive; negative | mutagenic call (Strain/Indicator: TA1538, Metabolic Activation: NONE, Method: PREINCUBATION): inactive; negative | mutagenic call (Strain/Indicator: TA1538, Method: PREINCUBATION): inactive; negative

Clc1c(Cl)c(Br)c2c(c1Cl)-c1nc-2nc2[n-]c(nc3nc(nc4[n-]c(n1)c1c(Cl)c(Br)c(Cl)c(Br)c41)-c1c(Cl)c(Cl)c(Br)c(Cl)c1-3)c1c(Br)c(Cl)c(Br)c(Cl)c21.[Cu+2]
mutagenic call (Strain/Indicator: TA98, Metabolic Activation: HAMSTER, LIVER, S-9, AROCLOR 1254 (10%), Method: PREINCUBATION): active; positive | mutagenic call [1]: inactive; negative | mutagenic call (Strain/Indicator: TA98, Metabolic Activation: RAT, LIVER, S-9, AROCLOR 1254 (10%), Method: PREINCUBATION): active; positive | mutagenic call (Strain/Indicator: TA100, Metabolic Activation: HAMSTER, LIVER, S-9, AROCLOR 1254 (10%), Method: PREINCUBATION): inactive; negative | mutagenic call [2]: inactive; negative | mutagenic call (Strain/Indicator: TA100, Metabolic Activation: RAT, LIVER, S-9, AROCLOR 1254 (10%), Method: PREINCUBATION): inactive; negative | mutagenic call (Strain/Indicator: TA1535, Metabolic Activation: HAMSTER, LIVER, S-9, AROCLOR 1254 (10%), Method: PREINCUBATION): inactive; negative | mutagenic call [4]: inactive; negative | mutagenic call (Strain/Indicator: TA1535, Metabolic Activation: RAT, LIVER, S-9, AROCLOR 1254 (10%), Method: PREINCUBATION): inactive; negative | mutagenic call (Strain/Indicator: TA1537, Metabolic Activation: HAMSTER, LIVER, S-9, AROCLOR 1254 (10%), Method: PREINCUBATION): inactive; negative | mutagenic call [5]: inactive; negative | mutagenic call (Strain/Indicator: TA1537, Metabolic Activation: RAT, LIVER, S-9, AROCLOR 1254 (10%), Method: PREINCUBATION): active; positive

Fc1cccc2c1ccc1ncccc12
mutagenic call (Strain/Indicator: TA100, Metabolic Activation: RAT, LIVER, S-9, PHENOBARBITAL AND 5,6-BENZOFLAVONE, Method: PREINCUBATION): active; positive

CSc1ncnc2nc[nH]c12
mutagenic call [3]: active; positive

CC12OOC1(C)c1ccccc1O2 (configuration not stated)
mutagenic call [2]: active; positive | mutagenic call (Strain/Indicator: TA2638, Metabolic Activation: NONE, Method: PREINCUBATION): inactive; negative

Clc1nncc2cccnc12
mutagenic call [1]: inactive; negative | mutagenic call (Strain/Indicator: TA98, Metabolic Activation: RAT, LIVER, S-9, PCB, Method: PREINCUBATION): active; positive | mutagenic call [2]: inactive; negative | mutagenic call (Strain/Indicator: TA100, Metabolic Activation: RAT, LIVER, S-9, PCB, Method: PREINCUBATION): active; positive

O=c1c2c(O)cccc2oc2c3c(cc(O)c12)O[C@H]1OCC[C@@H]31
mutagenic call (Strain/Indicator: TA98, Metabolic Activation: RAT, LIVER, S-9, PHENOBARBITAL, Method: STANDARD PLATE): inactive; negative | mutagenic call (Strain/Indicator: TA100, Metabolic Activation: RAT, LIVER, S-9, PHENOBARBITAL, Method: STANDARD PLATE): inactive; negative
